Structures are written as SMILES.

The experiment deals with T1, human full-length MKNK1 (Homo sapiens, UniProt Q9BUB5, T385D).
T1 construct: purchased Carna Biosciences 02-145; host or cells: insect cells, baculovirus expression system
T1 sequence (Q9BUB5 1-424 isoform Q9BUB5-2 T344D): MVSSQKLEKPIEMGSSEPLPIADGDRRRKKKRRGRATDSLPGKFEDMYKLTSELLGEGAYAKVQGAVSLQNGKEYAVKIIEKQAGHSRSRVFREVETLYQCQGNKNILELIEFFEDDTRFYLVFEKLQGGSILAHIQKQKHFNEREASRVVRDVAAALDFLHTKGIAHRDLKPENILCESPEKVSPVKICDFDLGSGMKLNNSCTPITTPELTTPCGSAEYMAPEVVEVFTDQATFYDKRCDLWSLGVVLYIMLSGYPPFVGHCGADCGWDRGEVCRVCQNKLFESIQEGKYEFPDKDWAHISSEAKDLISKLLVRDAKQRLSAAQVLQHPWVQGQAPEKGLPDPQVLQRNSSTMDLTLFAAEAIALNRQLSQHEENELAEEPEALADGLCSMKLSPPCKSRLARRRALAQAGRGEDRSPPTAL
Description: MKNK1 kinase high ATP assay (TR-FRET). In kind it is biochemical. To be noted: high ATP (2 mM), 15 min preincubation with enzyme, GST-MKNK1 (T344D). The method in brief:
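GST-tagged full-length human MKNK1 (aa 1-424, T344D), baculovirus-expressed, preincubated 15 min with compound, then reacted 30 min at 22 °C with 2 mM ATP and 0.06 µM biotinylated peptide (final).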
For orientation: Time-resolved FRET reads energy transfer from a long-lived donor to a nearby acceptor.
Regarding `CCCOc1ccc(F)cc1Nc1ncnc2[nH]c3c(c12)CC(C(=O)NCCCS(C)(=O)=O)CC3` (racemic) [Example 160, (RS)-4-[(5-Fluoro-2-propoxyphenyl)amino]-N-[3-(methylsulfonyl)propyl]-6,7,8,9-tetrahydro-5H-pyrimido[4,5-b]indole-6-carboxamide], the IC50 is 37 nM.

On to `CS(=O)(=O)CCCNC(=O)C1CCc2[nH]c3ncnc(Nc4cccc5c4CCCC5)c3c2C1` (racemic) [Example 58, (RS)—N-[3-(Methylsulfonyl)propyl]-4-(5,6,7,8-tetrahydronaphthalen-1-ylamino)-6,7,8,9-tetrahydro-5H-pyrimido[4,5-b]indole-6-carboxamide], for which the 50% inhibitory concentration (IC50) amounted to 1170 nM.

`CC(C)Oc1cc(F)ccc1Nc1ncnc2[nH]c3c(c12)CCCC3` [Example 1, N-(4-Fluoro-2-isopropoxyphenyl)-6,7,8,9-tetrahydro-5H-pyrimido[4,5-b]indol-4-amine] showed a concentration for half-maximal inhibition (IC50) of 43 nM.

In turn, `CS(=O)(=O)CCCNC(=O)C1CCc2[nH]c3ncnc(Oc4ccc5[nH]ncc5c4)c3c2C1` (racemic) [Example 56, (RS)-4-(1H-Indazol-5-yloxy)-N-[3-(methylsulfonyl)propyl]-6,7,8,9-tetrahydro-5H-pyrimido[4,5-b]indole-6-carboxamide] displayed an IC50 of 226 nM.

As to `COc1ccc(F)cc1Nc1ncnc2[nH]c3c(c12)CC(C(=O)Nc1ccccc1)CC3` (racemic) [Example 199, (RS)-4-[(5-Fluoro-2-methoxyphenyl)amino]-N-phenyl-6,7,8,9-tetrahydro-5H-pyrimido[4,5-b]indole-6-carboxamide], the IC50 is no less than 20000 nM.

In turn, `CCOC(=O)C1CCc2[nH]c3ncnc(Nc4cc5cn[nH]c5cc4OC)c3c2C1` (racemic) [Example 179, (RS)-Ethyl 4-[(6-methoxy-1H-indazol-5-yl)amino]-6,7,8,9-tetrahydro-5H-pyrimido[4,5-b]indole-6-carboxylate] returned an IC50 of 13 nM.

As to `CCOC(=O)C1CCc2[nH]c3ncnc(Nc4cc(Cl)ccc4OC)c3c2C1` (racemic) [Example 175, (RS)-Ethyl 4-[(5-chloro-2-methoxyphenyl)amino]-6,7,8,9-tetrahydro-5H-pyrimido[4,5-b]indole-6-carboxylate], it took 359 nM to reach half-maximal inhibition (IC50).

For `COc1ccc(Cl)cc1Nc1ncnc2[nH]c3c(c12)CCCC3` [Example 125], inhibition was half-maximal at 104 nM (IC50).

For `[O-][S+]1CCc2[nH]c3ncnc(Nc4ccc5[nH]ncc5c4)c3c2C1` (racemic) [Example 85, (RS)—N-(1H-Indazol-5-yl)-5,7,8,9-tetrahydrothiopyrano[3′,4′:4,5]pyrrolo[2,3-d]pyrimidin-4-amine 6-oxide], the IC50 was 192 nM.

In general, IC50 refers to the concentration at which inhibition is half-maximal.
